Experimental data: ChEMBL document CHEMBL2440050 (ACS Med Chem Lett, 2013)

Columns and labels:
HCT-116 [1] = assay: Growth inhibition of vinblastine-sensitive human HCT116 cells after 72 hrs by phosphatase assay; assay type: functional, cell-based; settings: HCT-116, 72 h
[2] = Ratio of vinblastine IC50 to compound IC50 for human SW403 cells by MTS assay; assay type: functional
MDA-MB-468 [3] = assay: Ratio of vinblastine IC50 to compound IC50 for human MDA-MB-468 cells by MTS assay; assay type: functional
HCT-116/VM46 [4] = assay: Growth inhibition of vinblastine-resistant human HCT116/VM46 cells overexpressing P-gp after 72 hrs by MTS assay; assay type: functional, cell-based; settings: HCT-116/VM46, 72 h
ZR-75-1 [5] = assay: Growth inhibition of human ZR-75-1 cells after 72 hrs by MTS assay; assay type: functional, cell-based; settings: ZR-75-1, 72 h
HCT-116 [6] = assay: Ratio of IC50 for vinblastine-resistant human HCT116/VM46 cells overexpressing P-gp to IC50 for vinblastine-sensitive human HCT116 cells by MTS assay; assay type: functional
[7] = Growth inhibition of human KPL4 cells after 72 hrs by MTS assay; assay type: functional, cell-based; settings: KPL4, 72 h
PA-1 [8] = assay: Growth inhibition of human PA1 cells after 72 hrs by MTS assay; assay type: functional, cell-based; settings: PA-1, 72 h
[9] = Ratio of vinblastine IC50 to compound IC50 for human LNCaP-FGC cells by MTS assay; assay type: functional
HCT-116/VM46 [10] = assay: Growth inhibition of vinblastine-resistant human HCT116/VM46 cells overexpressing P-gp after 72 hrs by phosphatase assay; assay type: functional, cell-based; settings: HCT-116/VM46, 72 h
NCI-H520 [11] = assay: Growth inhibition of human NCI-H520 cells after 72 hrs by MTS assay; assay type: functional, cell-based; settings: NCI-H520, 72 h
ZR-75-1 [12] = assay: Ratio of vinblastine IC50 to compound IC50 for human ZR-75-1 cells by MTS assay; assay type: functional
T47D [13] = assay: Growth inhibition of human T47D cells after 72 hrs by MTS assay; assay type: functional, cell-based
HCC1143 [14] = assay: Growth inhibition of human HCC1143 cells after 72 hrs by MTS assay; assay type: functional, cell-based; settings: HCC1143, 72 h
HCC1143 [15] = assay: Ratio of vinblastine IC50 to compound IC50 for human HCC1143 cells by MTS assay; assay type: functional
MCF7 = assay: Growth inhibition of human MCF7 cells after 72 hrs by MTS assay; assay type: functional, cell-based; settings: MCF7, 72 h
HCT-116/VM46 [16] = assay: Ratio of vinblastine IC50 to compound IC50 for vinblastine-resistant human HCT116/VM46 cells overexpressing P-gp by phosphatase assay; assay type: functional
L1210 [17] = assay: Ratio of vinblastine IC50 to compound IC50 for mouse L1210 cells by phosphatase assay; assay type: functional
HCT-116 [18] = assay: Ratio of vinblastine IC50 to compound IC50 for vinblastine-sensitive human HCT116 cells by phosphatase assay; assay type: functional
LS174T = assay: Ratio of vinblastine IC50 to compound IC50 for human LS 174T cells by MTS assay; assay type: functional
HCT-116 [19] = assay: Growth inhibition of vinblastine-sensitive human HCT116 cells after 72 hrs by MTS assay; assay type: functional, cell-based; settings: HCT-116, 72 h
HCT-116 [20] = assay: Ratio of vinblastine IC50 to compound IC50 for vinblastine-sensitive human HCT116 cells by MTS assay; assay type: functional
HCC70 [21] = assay: Ratio of vinblastine IC50 to compound IC50 for human HCC70 cells by MTS assay; assay type: functional
[22] = Growth inhibition of human LNCaP-FGC cells after 72 hrs by MTS assay; assay type: functional, cell-based; settings: LNCaP-Clone-FGC
L1210 [23] = assay: Growth inhibition of mouse L1210 cells after 72 hrs by phosphatase assay; assay type: functional, cell-based; settings: L1210, 72 h
[24] = Ratio of vinblastine IC50 to compound IC50 for human KPL4 cells by MTS assay; assay type: functional
[25] = Growth inhibition of human LS 174T cells after 72 hrs by MTS assay; assay type: functional, cell-based; settings: LS174T
HCC70 [26] = assay: Growth inhibition of human HCC70 cells after 72 hrs by MTS assay; assay type: functional, cell-based; settings: HCC70, 72 h
T47D [27] = assay: Ratio of vinblastine IC50 to compound IC50 for human T47D cells by MTS assay; assay type: functional
HCT-116 [28] = assay: Ratio of IC50 for vinblastine-resistant human HCT116/VM46 cells overexpressing P-gp to IC50 for vinblastine-sensitive human HCT116 cells by phosphatase assay; assay type: functional
[29] = Growth inhibition of human SW403 cells after 72 hrs by MTS assay; assay type: functional, cell-based; settings: SW-403, 72 h
HCT-116/VM46 [30] = assay: Ratio of vinblastine IC50 to compound IC50 for vinblastine-resistant human HCT116/VM46 cells overexpressing P-gp by MTS assay; assay type: functional
AU565 [31] = assay: Ratio of vinblastine IC50 to compound IC50 for human AU565 cells by MTS assay; assay type: functional
NCI-H520 [32] = assay: Ratio of vinblastine IC50 to compound IC50 for human NCI-H520 cells by MTS assay; assay type: functional
PA-1 [33] = assay: Ratio of vinblastine IC50 to compound IC50 for human PA1 cells by MTS assay; assay type: functional
MDA-MB-468 [34] = assay: Growth inhibition of human MDA-MB-468 cells after 72 hrs by MTS assay; assay type: functional, cell-based; settings: MDA-MB-468, 72 h
Tubulin (Sus scrofa) = Tubulin (Sus scrofa) (UniProt P02554+P02550); assay: Displacement of [3H]-VBL from porcine tubulin after 60 mins relative to control; assay type: protein assay
Tubulin (Sus scrofa), sequence (P02550 whole entry, looked up): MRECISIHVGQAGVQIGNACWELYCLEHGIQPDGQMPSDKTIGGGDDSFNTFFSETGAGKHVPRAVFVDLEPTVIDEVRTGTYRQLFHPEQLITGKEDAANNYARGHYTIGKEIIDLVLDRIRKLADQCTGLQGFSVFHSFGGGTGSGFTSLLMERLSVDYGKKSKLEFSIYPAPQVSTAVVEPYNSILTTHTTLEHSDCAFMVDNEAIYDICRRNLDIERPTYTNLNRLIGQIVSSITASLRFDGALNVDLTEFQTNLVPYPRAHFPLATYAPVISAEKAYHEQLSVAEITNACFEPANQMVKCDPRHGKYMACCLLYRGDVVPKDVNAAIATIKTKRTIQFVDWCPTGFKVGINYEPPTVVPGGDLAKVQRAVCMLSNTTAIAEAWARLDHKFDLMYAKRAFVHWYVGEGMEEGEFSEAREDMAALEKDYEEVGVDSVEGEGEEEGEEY
Tubulin (Sus scrofa), sequence (P02554 whole entry, looked up): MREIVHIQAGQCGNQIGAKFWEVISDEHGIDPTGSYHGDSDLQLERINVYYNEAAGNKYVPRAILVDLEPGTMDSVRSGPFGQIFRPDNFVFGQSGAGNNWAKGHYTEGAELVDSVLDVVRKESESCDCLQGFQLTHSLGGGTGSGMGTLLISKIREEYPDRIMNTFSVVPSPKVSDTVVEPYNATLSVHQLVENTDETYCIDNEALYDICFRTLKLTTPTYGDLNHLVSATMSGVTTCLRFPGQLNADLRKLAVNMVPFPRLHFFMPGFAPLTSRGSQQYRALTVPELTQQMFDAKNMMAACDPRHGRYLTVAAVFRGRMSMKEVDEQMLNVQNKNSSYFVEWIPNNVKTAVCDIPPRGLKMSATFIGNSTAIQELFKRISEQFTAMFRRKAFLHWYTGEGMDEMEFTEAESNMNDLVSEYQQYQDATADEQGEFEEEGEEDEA

AU565 [35] = assay: Growth inhibition of human AU565 cells after 72 hrs by MTS assay; assay type: functional, cell-based; settings: AU565, 72 h

Question: For `CC[C@]1(NC(=O)N2Cc3ccccc3C2)C[C@H]2CN(CCc3c([nH]c4ccccc34)[C@@](C(=O)OC)(c3cc4c(cc3OC)N(C)[C@H]3[C@@](O)(C(=O)OC)[C@H](OC(C)=O)[C@]5(CC)C=CCN6CC[C@]43[C@@H]65)C2)C1`, which IC50 (HCT-116 [1]) is on record?
Answer: 0.6 nM

Question: What about the “Ratio IC50” value [2] of the same compound?
Answer: 10

Question: And the “Ratio IC50” value (MDA-MB-468 [3])?
Answer: 10

Question: And the IC50 (HCT-116/VM46 [4])?
Answer: 3.5 nM

Question: And the IC50 (ZR-75-1 [5])?
Answer: 0.45 nM

Question: What about the “Ratio IC50” value (HCT-116 [6]) of the same compound?
Answer: 20

Question: And the IC50 [7]?
Answer: 0.04 nM

Question: What about the IC50 (PA-1 [8]) of the same compound?
Answer: 0.11 nM

Question: And the “Ratio IC50” value [9]?
Answer: 10

Question: What about the IC50 (HCT-116/VM46 [10]) of the same compound?
Answer: 7.5 nM

Question: What about the IC50 (NCI-H520 [11]) of the same compound?
Answer: 0.1 nM

Question: And the “Ratio IC50” value (ZR-75-1 [12])?
Answer: 10

Question: What about the IC50 (T47D [13]) of the same compound?
Answer: 0.41 nM

Question: What about the IC50 (HCC1143 [14]) of the same compound?
Answer: 0.09 nM

Question: And the “Ratio IC50” value (HCC1143 [15])?
Answer: 10

Question: What about the IC50 (MCF7) of the same compound?
Answer: > 12.5 nM

Question: And the “Ratio IC50” value (HCT-116/VM46 [16])?
Answer: 80

Question: And the “Ratio IC50” value (L1210 [17])?
Answer: 10

Question: What about the “Ratio IC50” value (HCT-116 [18]) of the same compound?
Answer: 10

Question: And the “Ratio IC50” value (LS174T)?
Answer: 10

Question: And the IC50 (HCT-116 [19])?
Answer: 0.16 nM

Question: And the “Ratio IC50” value (HCT-116 [20])?
Answer: 10

Question: What about the “Ratio IC50” value (HCC70 [21]) of the same compound?
Answer: 10

Question: And the IC50 [22]?
Answer: 0.24 nM

Question: What about the IC50 (L1210 [23]) of the same compound?
Answer: 0.51 nM

Question: And the “Ratio IC50” value [24]?
Answer: 10

Question: And the IC50 [25]?
Answer: 0.45 nM

Question: And the IC50 (HCC70 [26])?
Answer: 0.04 nM

Question: What about the “Ratio IC50” value (T47D [27]) of the same compound?
Answer: 10

Question: What about the “Ratio IC50” value (HCT-116 [28]) of the same compound?
Answer: 13

Question: And the IC50 [29]?
Answer: 0.45 nM

Question: And the “Ratio IC50” value (HCT-116/VM46 [30])?
Answer: 10

Question: And the “Ratio IC50” value (AU565 [31])?
Answer: 10

Question: What about the “Ratio IC50” value (NCI-H520 [32]) of the same compound?
Answer: 10

Question: And the “Ratio IC50” value (PA-1 [33])?
Answer: 10

Question: And the IC50 (MDA-MB-468 [34])?
Answer: 0.39 nM

Question: And the Activity (Tubulin (Sus scrofa))?
Answer: 41.2%

Question: What about the IC50 (AU565 [35]) of the same compound?
Answer: 0.11 nM
